The record followed here is patent US20230279025A1, “KRAS G12D INHIBITORS” (Mirati Therapeutics, Inc., priority 2020, published 2023).

Read-outs that look alike come from different tables or passages of the source. A value given as a limit tells only on which side of the number the result lay.

Assay [1] concerns KRas G12D-mediated phosphorylation of ERK in AGS cells (ATCC CRL-1739) expressing G12D. Briefly: Inhibition of KRas G12D-mediated Phosphorylation of ERK in AGS cells. The assay is classed as cell-based. Particulars: Homo sapiens. As to the method: Cells were plated in tissue culture treated 96 well plates at a density of 40,000 cells/well and allowed to attach for 12-14 hours. Diluted compounds were then added in a final concentration of 0.5% DMSO. After 3 hours, the medium was removed, 150 μL of 4.0% formaldehyde was added and the plates incubated at room temperature for 20 minutes. The plates were washed with PBS, and permeabilized with 150 μL of ice cold 100% methanol for 10 minutes. Non-specific antibody binding to the plates was blocked using […] Licor blocking buffer (Li-Cor Biotechnology, Lincoln Nebr.) for 1 hour at room temperature.
The amount of phospho-ERK was determined using an antibody specific for the phosphorylated form of ERK and compared to the amount of GAPDH. Primary antibodies used for the detection were added as follows: Phospho-ERK(Cell Signaling cs-9101) diluted 1:500 and GAPDH(Millipore MAB374) diluted 1:5000 in Licor block+0.05% Tween 20. The plates were incubated for 2 hours at room temperature. The plates were washed with PBS+0.05% Tween 20.
Secondary antibodies used to visualize primary antibodies were added as follows: Anti-rabbit-680 diluted 1:1000 and Anti-mouse-800 diluted 1:1000 both in Licor block+0.05% TweeN20, and were incubated for 1 hour at room temperature. The plates were washed with PBS +0.05% Tween 20. A 100 μL aliquot of PBS was added to each well and the plates were read on a Li-Cor Odyssey CLX plate reader.

For assay [2], the target named is T1, KRas G12D (Homo sapiens (Human), UniProt P01116, G12D). Description: KRas G12D Binding Assay (TR-FRET displacement of Cy5 labelled tracer). Particulars: GDP-loaded KRAS G12D (amino acids 1:169), 60 minute incubation at 22° C. As to the method: After a 60 minute incubation at 22° C., the reaction was measured using a PerkinElmer EnVision multimode plate reader via TR-FRET dual wavelength detection, and the percent of control (POC) calculated using a ratiometric emission factor. […] The POC values were fit to a 4-parameter logistic curve and the IC50 value was determined as the concentration where the curve crosses 50 POC.
ND stands for “not determined.”
For orientation: TR-FRET usually uses a lanthanide donor and a delayed reading to cut background.
Target sequence in this assay (P01116 other isoform, or with tags, fused parts or gaps G12D): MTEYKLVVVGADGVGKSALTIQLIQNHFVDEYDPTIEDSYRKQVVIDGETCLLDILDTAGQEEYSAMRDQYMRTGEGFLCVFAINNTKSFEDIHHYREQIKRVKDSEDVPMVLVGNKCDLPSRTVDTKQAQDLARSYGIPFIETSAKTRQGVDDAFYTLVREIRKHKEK

Assay [3] addresses T1, KRas G12D. Briefly: KRas G12D Surface Plasmon Resonance (SPR) Binding Assay. Particulars: Biacore T200, immobilized biotinylated KRAS protein, 1:1 binding model. (In SPR one partner is held on a chip, and binding of the other changes the refractive index at the surface.)
Target sequence in this assay (P01116-2 other isoform, or with tags, fused parts or gaps G12D): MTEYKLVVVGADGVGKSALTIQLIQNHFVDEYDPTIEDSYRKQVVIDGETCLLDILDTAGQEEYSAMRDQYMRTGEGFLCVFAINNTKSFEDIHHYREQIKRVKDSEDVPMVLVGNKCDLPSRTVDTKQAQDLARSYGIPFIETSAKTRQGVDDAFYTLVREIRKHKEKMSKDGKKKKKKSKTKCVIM
[4] abbreviates: phospho-ERK(Thr202/Tyr204) normalized to GAPDH, AGS cells, 3 hours, read-out: IC50.

Consider `Fc1c(-c2cccc3cccc(Cl)c23)ncc2c(N3C[C@H]4CC[C@@H](C3)N4)nc(OCCCN3C[C@@H]4C[C@H]3CO4)nc12` [Example 103, (1S,4S)-5-(3-((4-((1R,5S)-3,8-diazabicyclo[3.2.1]octan-3-yl)-7-(8-chloronaphthalen-1-yl)-8-fluoropyrido[4,3-d]pyrimidin-2-yl)oxy)propyl)-2-oxa-5-azabicyclo[2.2.1]heptane], for which the IC50 (in general, the concentration needed to halve the response being measured) in assay [1] (setting [4]) is above 16700 nM.

With `Cc1cc2[nH]ncc2c(-c2ncc3c(N4C[C@H]5CC[C@@H](C4)N5)nc(OCC45CCCN4CC(F)C5)nc3c2F)c1Cl` (mixture of isomers) [Example 376, 4-((1R,5S)-3,8-diazabicyclo[3.2.1]octan-3-yl)-7-(5-chloro-6-methyl-1H-indazol-4-yl)-8-fluoro-2-((2-fluorotetrahydro-1H-pyrrolizin-7a(5H)-yl)methoxy)pyrido[4,3-d]pyrimidine], the IC50 in assay [1] (setting [4]) was found to be 582 nM.

For the compound `C#Cc1c(F)ccc2cc(O)cc(-c3ncc4c(N5C[C@H]6CC[C@@H](C5)N6)nc(OC[C@@]56CCCCN5C[C@H](F)C6)nc4c3F)c12` [Example 469, 4-(4-((1R,5S)-3,8-diazabicyclo[3.2.1]octan-3-yl)-8-fluoro-2-(((2R,8aS)-2-fluorooctahydroindolizin-8a-yl)methoxy)pyrido[4,3-d]pyrimidin-7-yl)-5-ethynyl-6-fluoronaphthalen-2-ol], the IC50 was below 0.002 nM in assay [2] and 31.6 nM in assay [1] (setting [4]).

Regarding `C#Cc1c(F)ccc2cc(O)cc(-c3ncc4c(N5C[C@H]6CC[C@@H](C5)N6)nc(OC[C@]56CCCN5C[C@@H](F)C6)nc4c3F)c12` [Example 482, 4-(4-((1R,5S)-3,8-diazabicyclo[3.2.1]octan-3-yl)-8-fluoro-2-(((2S,7aR)-2-fluorohexahydro-1H-pyrrolizin-7a-yl)methoxy)pyrido[4,3-d]pyrimidin-7-yl)-5-ethynyl-6-fluoronaphthalen-2-ol], in assay [1] (setting [4]), the concentration for half-maximal inhibition (IC50) came out at 3.4 nM.

On to `CCc1cccc2cccc(-c3ncc4c(N5CC6CCC(C5)N6)nc(OC[C@]56CCCN5[C@@H](COC(=O)N5CCOCC5)CC6)nc4c3F)c12` (single isomer, unassigned) [Example 431], for which the IC50 in assay [2] was determined as 1.4 nM; in assay [1] (setting [4]), 74.3 nM.

Turning to `CN1C[C@H](Oc2cccc(S(=O)(=O)F)c2)C[C@H]1COc1nc(N2C[C@H]3CC[C@@H](C2)N3)c2cnc(-c3cccc4cccc(Cl)c34)c(F)c2n1` [Example 208, 3-(((3R,5S)-5-(((4-((1R,5S)-3,8-diazabicyclo[3.2.1]octan-3-yl)-7-(8-chloronaphthalen-1-yl)-8-fluoropyrido[4,3-d]pyrimidin-2-yl)oxy)methyl)-1-methylpyrrolidin-3-yl)oxy)benzenesulfonyl fluoride tris 2,2,2-trifluoroacetate], the IC50 in assay [2] is 1840 nM; in assay [1] (AGS, 3 h), above 16700 nM.

Consider `CN1C[C@H](Oc2ccc(S(=O)(=O)F)cc2)C[C@H]1COc1nc(N2C[C@H]3CC[C@@H](C2)N3)c2cnc(-c3cccc4cccc(Cl)c34)c(F)c2n1` [Example 209, 4-(((3R,5S)-5-(((4-((1R,5S)-3,8-diazabicyclo[3.2.1]octan-3-yl)-7-(8-chloronaphthalen-1-yl)-8-fluoropyrido[4,3-d]pyrimidin-2-yl)oxy)methyl)-1-methylpyrrolidin-3-yl)oxy)benzenesulfonyl fluoride tris(2,2,2-trifluoroacetate)], for which the IC50 in assay [2] was 2750 nM; in assay [1] (AGS, 3 h), above 16700 nM.

Consider `Oc1cc(-c2ncc3c(N4C[C@H]5CC[C@@H](C4)N5)nc(OC4CCOCC4)nc3c2F)c2ccccc2c1` [Example 72, 4-(4-((1R,5S)-3,8-diazabicyclo[3.2.1]octan-3-yl)-8-fluoro-2-((tetrahydro-2H-pyran-4-yl)oxy)pyrido[4,3-d]pyrimidin-7-yl)naphthalen-2-ol], for which binding in assay [3] was characterised by a dissociation constant (Kd) of 507 nM. The IC50 in assay [2] is 513 nM.
